This is an account of results in a melting point compilation (Tetko et al.; mined from patent text by program, amines drawn as free bases though some values may be those of a salt).

Where only a bound is given, the exact number is not on record here.

The molecule `CC(=O)c1cnc(-c2ccccc2)nc1-c1ccccc1` displayed a melting point of 100 to 108 °C.
The molecule `CC(=O)Nc1ccc(OCCOc2ccccc2)cc1[N+](=O)[O-]` had a melting point of 104 to 106 °C.
`COc1cc(OC)c2c(=O)[nH]c(-c3cccc(N4CCN(C(C)C(N)=O)CC4)n3)nc2c1` (stereo not given) displayed a melting point of 149 to 150 °C.
`Cc1nc(-n2cccc(O)c2=O)sc1C(=O)NCc1ccccc1` registered a melting point of 225 to 228 °C.
The same measure for `N#CCOc1ccc(C(=O)c2ccccc2)c(Cl)c1Cl`: 110 to 112 °C; for `CC(=O)OC1CC2=CC(=NO)C3C4CCCC4(C)CCC3C2(C)C(OC(C)=O)C1` (stereo not given): 236 to 238 °C.
The same measure for `CC(=O)c1ccc(CCNS(C)(=O)=O)cc1`: 80 to 81 °C; for `Cc1nc2c(c3c1[nH]c1cc(F)ccc13)C(=O)CC(C)(C)C2`: 244 to 246 °C; for `CCOC(=O)c1nc2cc(-c3ccccc3)sc2nc1N`: 173 to 175 °C.
The same measure for `OCc1cc2ccc3c4ccccc4ccc3c2s1`: 169 to 170 °C.
Consider `O=C(CC(NC(=O)Cc1ccccc1)c1ccccc1)Nc1n[nH]c(=S)s1` (stereo not given), for which the melting point is 249 to 250 °C.
`COc1ccc(S(=O)(=O)N(CC(N)=O)c2cc(Cl)c(Cl)cc2Cc2ccccc2Cl)cc1OC` registered a melting point of 163 °C.
`CNc1nc(-c2cccc(-c3ccc(S(C)=O)cc3)c2)c2cc(OC)c(OC)cc2n1` (stereo not given) yielded a melting point of 153 to 155 °C.
The value for `COc1ccc(-c2nc(Sc3ncccn3)[nH]c2-c2ccc(OC)cc2)cc1` was 86 °C; that for `CCCC1CCC=CCCCC(=O)OCCN1C(=O)OCC1c2ccccc2-c2ccccc21` (stereo not given) was 148 to 150 °C.
The same measure for `O=C(O)c1cc2ccccc2nc1N[C@H](Cc1ccccc1)C(=O)O`: 140 to 142 °C; for `COc1ncccc1-c1cc(F)c(F)c(OC2SCC(O)C(O)C2O)c1` (stereo not given): 127 °C; for `Cc1nc(-c2ccc(C(=O)N3CCN(S(=O)(=O)c4ccc5cc(Br)ccc5c4)CC3)cc2)c[nH]1`: 215 to 216 °C.
In turn, `CC12CC(N3CCC4(CC3)OCCO4)C(O)CC1CCC1C2CCC2(C)C(O)C(N3CCCCC3)CC12` (stereo not given) displayed a melting point of 216 to 218 °C.
`CCOC(=O)C1=C(COCC(C)(O)Cn2cncn2)NC(C)=C(C(=O)OC)C1c1cccc(Cl)c1Cl` (stereo not given) gave a melting point of 149 to 160 °C.
As for `Nc1ncnc2c1ncn2COCCO`, the melting point came out at 200 °C.
With `O=c1c2cc(O)ccc2oc2c(CO)ccc(NCCN3CCCC3)c12`, the melting point was in the range of 186 to 190 °C.
Turning to `CC1=NC(NC(=O)Nc2cccc(C)c2)C(=O)N(CC(=O)C2CCCCCC2)c2c(C)cccc21` (stereo not given), the melting point was in the range of 171 to 175 °C.
The same measure for `Nc1ncc(-c2ccc3ncc(-c4ccc(CN5CCC(C(=O)N6CCCCC6)CC5)cc4)n3n2)cc1C(F)(F)F`: 263 to 266 °C.
The value for `Cc1c(C#N)sc2nc(-c3ccc4c(c3)OCO4)nc(N3CCOCC3)c12` was 197 to 198 °C; that for `O=C(O)CCN1CCN(c2ccccc2Cl)CC1` was 210 to 213 °C; that for `CN(C(=N)Nc1ncccc1OCc1c(F)cccc1F)c1ccc(Cl)cc1` was 100 to 102 °C.
The same measure for `OC(CCn1cccn1)c1ccc(OCc2ccccc2)cc1` (stereo not given): 80 to 85 °C; for `CCOC(=O)Cc1c(C(=O)OCC)c(C)c(C(=O)OCC)n1CC`: 142 to 145 °C.
`O=C1CCC(c2ccc(OC3CCN(C4CCC4)CC3)cc2F)=NN1` had a melting point of over 300 °C.
In the case of `COc1cccc2oc(=O)c3c4c(ccc3c12)NC(C)(C)C=C4C`, the melting point fell in the range of 247 to 248 °C.
With `Cc1nc2c(s1)CN=C(c1ccccc1F)c1cc(Cl)ccc1-2`, the melting point lay within 147 to 149 °C.
The value for `CC(CC(=O)O)C(=O)c1ccc(O)cc1` (stereo not given) was 122 to 126 °C; that for `CCOC(=O)C(C)Oc1ncn(-c2cccc(F)c2)n1` (stereo not given) was 35 to 37 °C; that for `COc1cc(OC)c(NC(=O)CBr)c(OC)c1` was 160 to 161 °C.
